Experimental data taken from paper PMC11342626, “Inhibition of IRP2-dependent reprogramming of iron metabolism suppresses tumor growth in colorectal cancer” (Cell Communication and Signaling : CCS, 2024).
pKd: −log10 of the molar value.

Target: T1, IRP2 (Homo sapiens, UniProt P48200)
T1 construct: gene IREB2; isolated IRP2 immobilised on CM5 chip
T1 sequence (P48200 1-963): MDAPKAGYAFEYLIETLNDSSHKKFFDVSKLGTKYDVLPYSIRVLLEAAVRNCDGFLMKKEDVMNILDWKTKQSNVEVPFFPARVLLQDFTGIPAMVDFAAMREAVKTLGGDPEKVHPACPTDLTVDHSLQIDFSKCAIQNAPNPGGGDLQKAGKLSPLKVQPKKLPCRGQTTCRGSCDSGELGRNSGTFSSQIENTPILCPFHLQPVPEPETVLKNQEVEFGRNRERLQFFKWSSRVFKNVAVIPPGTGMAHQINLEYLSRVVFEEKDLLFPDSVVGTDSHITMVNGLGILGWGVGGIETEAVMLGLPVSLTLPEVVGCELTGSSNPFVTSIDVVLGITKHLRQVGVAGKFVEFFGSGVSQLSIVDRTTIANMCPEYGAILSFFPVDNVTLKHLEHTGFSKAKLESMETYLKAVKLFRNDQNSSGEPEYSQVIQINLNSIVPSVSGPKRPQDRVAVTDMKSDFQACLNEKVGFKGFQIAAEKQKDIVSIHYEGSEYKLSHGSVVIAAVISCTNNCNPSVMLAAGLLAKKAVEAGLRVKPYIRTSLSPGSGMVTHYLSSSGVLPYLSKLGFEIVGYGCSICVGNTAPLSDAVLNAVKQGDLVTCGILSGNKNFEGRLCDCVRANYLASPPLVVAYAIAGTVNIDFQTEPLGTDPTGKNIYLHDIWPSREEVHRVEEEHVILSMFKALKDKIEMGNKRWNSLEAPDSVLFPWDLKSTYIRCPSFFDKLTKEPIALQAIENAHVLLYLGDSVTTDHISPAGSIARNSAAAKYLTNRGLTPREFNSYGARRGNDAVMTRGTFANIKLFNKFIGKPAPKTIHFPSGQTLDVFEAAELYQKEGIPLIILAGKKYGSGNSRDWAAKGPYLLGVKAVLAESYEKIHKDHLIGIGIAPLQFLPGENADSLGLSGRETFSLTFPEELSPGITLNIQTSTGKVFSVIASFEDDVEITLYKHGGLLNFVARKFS
Assay: SPR (Biacore T200, CM5 chip, multi-cycle kinetics, […] fit)
Type: binding

pKd | SMILES
4.34 | COc1ccc(S(=O)(=O)Nc2cccc(C)c2)cc1-c1cnc2[nH]ncc2c1 [KS-20073]
5.39 | COc1ccc(S(=O)(=O)Nc2cccc(F)c2)cc1-c1cnc2[nH]nc(NC(C)=O)c2c1 [KS-20226]
